# Test results reported in patent US5635527A, “Carboxylic acid compound having condensed ring, salt thereof and pharmaceutical use thereof” (The Green Cross Corporation, priority 1994, dated 1997).
# Tested on: human platelets
# Experiment: suppressive activity on ADP aggregation of human platelets
# Type: cell-based
# Settings: platelet rich plasma, ADP 1-5 μM, compound added 2 minutes before ADP, read-out: Suppression of platelet aggregation (IC50)
# Protocol: Determination of suppressive activity on ADP aggregation of human platelets
# Platelet rich plasma was prepared from the blood taken from healthy humans by centrifugation in the presence of 0.38% sodium citrate, and used for the determination.
# Two minutes after the test compounds shown in Table 1 were added to the above-mentioned platelet rich plasma, ADP (adenosine-5'-diphosphate) (1-5 μM) having a concentration at which primary aggregation alone is observed was added, and the suppression of ADP aggregation by the compounds was evaluated. The percent suppression was determined by varying the concentration of the compounds and the concentration of the compound at which the aggregation was suppressed by 50% (IC50) was calculated, which was taken as the activity of the compound.
row,IC50,SMILES
1,20 nM,"N=C(N)c1cnc2oc(C(=O)N[C@H]3CC[C@H](OCC(=O)O)CC3)cc2c1 [Compound 255, trans-[4-(5-Amidinofuro[2,3-b]pyridine-2-carbonylamino)-cyclohexyloxy]acetic acid]"
2,10 nM,"N=C(N)c1cnc2oc(C(=O)N[C@H]3CC[C@H](CCC(=O)O)CC3)cc2c1 [Compound 261, trans-3-[4-(5-Amidinofuro[2,3-b]pyridine-2-carbonylamino)cyclohexyl]propionic acid]"
